The values that follow come from patent US20230150974A1 (Foghorn Therapeutics Inc., priority 2020, published 2023).

Molecules are shown by their SMILES. Bounds are passed on as bounds.

One experiment deals with T1, HiBit-BRG1 (Homo sapiens, UniProt P51532).
T1 construct: expressed in transfected cells
The experiment is described as follows: HiBit-BRG1 cell-based degradation assay (Nano-Glo HiBiT Lytic Detection). The settings on record: HeLa cells expressing HiBit-BRG1 and LgBit, 24 h; for DC50: read-out: BRG1 HiBit Degradation IC50; for Dmax: read-out: BRG1 HiBit Degradation Maximum (%). In outline:
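Seed 5000 HeLa HiBit-BRG1/LgBit cells per well; treat 24 h; equilibrate 15 min at room temperature; add Nano-Glo HiBiT lytic reagent, shake 10 min, read luminescence. Percent degradation is scaled between DMSO and 2 μM reference degrader wells.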
For orientation: With HiBiT, luminescence reflects the tagged protein that the partner subunit can reach.

Another experiment deals with T2, HiBiT-BRM (Homo sapiens, UniProt P51531).
T2 construct: expressed in transfected cells
T2 sequence (P51531 whole entry): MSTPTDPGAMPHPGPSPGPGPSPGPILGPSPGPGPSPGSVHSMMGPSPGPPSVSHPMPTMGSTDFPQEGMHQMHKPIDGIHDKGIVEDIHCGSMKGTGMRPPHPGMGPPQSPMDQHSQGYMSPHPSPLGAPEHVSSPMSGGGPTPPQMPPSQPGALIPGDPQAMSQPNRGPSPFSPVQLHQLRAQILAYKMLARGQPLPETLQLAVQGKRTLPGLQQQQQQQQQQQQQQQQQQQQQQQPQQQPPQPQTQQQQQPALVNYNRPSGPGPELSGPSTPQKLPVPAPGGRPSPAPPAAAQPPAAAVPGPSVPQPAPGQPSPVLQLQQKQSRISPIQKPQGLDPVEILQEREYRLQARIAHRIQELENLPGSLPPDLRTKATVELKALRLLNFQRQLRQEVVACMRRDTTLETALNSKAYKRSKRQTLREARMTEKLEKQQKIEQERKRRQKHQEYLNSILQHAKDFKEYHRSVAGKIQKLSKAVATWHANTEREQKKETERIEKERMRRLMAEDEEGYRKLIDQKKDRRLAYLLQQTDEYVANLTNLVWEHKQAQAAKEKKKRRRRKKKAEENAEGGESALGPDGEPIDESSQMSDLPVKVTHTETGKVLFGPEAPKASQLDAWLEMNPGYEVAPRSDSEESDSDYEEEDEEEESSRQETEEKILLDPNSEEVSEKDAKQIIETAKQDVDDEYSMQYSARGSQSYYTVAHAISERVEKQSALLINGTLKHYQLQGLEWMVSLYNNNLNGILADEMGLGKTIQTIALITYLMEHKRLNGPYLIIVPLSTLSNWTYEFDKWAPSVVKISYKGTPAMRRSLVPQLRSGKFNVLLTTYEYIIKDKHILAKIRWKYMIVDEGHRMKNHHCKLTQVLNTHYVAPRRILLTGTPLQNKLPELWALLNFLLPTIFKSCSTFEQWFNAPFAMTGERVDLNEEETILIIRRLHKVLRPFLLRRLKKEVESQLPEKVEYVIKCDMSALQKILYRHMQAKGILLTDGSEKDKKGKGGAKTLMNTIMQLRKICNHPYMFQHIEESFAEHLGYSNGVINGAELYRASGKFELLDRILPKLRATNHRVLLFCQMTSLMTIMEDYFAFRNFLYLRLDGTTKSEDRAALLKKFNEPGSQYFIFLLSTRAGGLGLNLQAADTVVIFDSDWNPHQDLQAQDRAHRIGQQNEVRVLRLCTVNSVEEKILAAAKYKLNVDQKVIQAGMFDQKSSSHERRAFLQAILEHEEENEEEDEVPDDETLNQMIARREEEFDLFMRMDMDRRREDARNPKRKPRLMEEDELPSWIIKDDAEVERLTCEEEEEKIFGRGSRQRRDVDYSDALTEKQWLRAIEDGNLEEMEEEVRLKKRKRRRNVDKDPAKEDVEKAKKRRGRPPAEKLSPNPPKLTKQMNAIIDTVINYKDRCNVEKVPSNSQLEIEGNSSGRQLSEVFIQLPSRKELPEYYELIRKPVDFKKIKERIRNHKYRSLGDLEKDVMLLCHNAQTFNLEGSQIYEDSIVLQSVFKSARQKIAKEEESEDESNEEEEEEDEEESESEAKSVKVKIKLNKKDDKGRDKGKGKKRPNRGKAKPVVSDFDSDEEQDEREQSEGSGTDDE
In words: HiBiT-BRM cell-based degradation assay (Nano-Glo HiBiT Lytic Detection). The settings on record: HeLa cells expressing HiBiT-BRM, 24 h; for DC50: read-out: BRM HiBit Degradation IC50. In outline:
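Luminescence from HiBiT–LgBiT complementation in lysates of a stable HiBiT-BRM HeLa line measured after 24 h compound exposure. Degradation expressed as percent relative to DMSO-treated cells and cells given 2 μM of a known BRM/BRG1 degrader.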

T1 sequence (P51532 whole entry): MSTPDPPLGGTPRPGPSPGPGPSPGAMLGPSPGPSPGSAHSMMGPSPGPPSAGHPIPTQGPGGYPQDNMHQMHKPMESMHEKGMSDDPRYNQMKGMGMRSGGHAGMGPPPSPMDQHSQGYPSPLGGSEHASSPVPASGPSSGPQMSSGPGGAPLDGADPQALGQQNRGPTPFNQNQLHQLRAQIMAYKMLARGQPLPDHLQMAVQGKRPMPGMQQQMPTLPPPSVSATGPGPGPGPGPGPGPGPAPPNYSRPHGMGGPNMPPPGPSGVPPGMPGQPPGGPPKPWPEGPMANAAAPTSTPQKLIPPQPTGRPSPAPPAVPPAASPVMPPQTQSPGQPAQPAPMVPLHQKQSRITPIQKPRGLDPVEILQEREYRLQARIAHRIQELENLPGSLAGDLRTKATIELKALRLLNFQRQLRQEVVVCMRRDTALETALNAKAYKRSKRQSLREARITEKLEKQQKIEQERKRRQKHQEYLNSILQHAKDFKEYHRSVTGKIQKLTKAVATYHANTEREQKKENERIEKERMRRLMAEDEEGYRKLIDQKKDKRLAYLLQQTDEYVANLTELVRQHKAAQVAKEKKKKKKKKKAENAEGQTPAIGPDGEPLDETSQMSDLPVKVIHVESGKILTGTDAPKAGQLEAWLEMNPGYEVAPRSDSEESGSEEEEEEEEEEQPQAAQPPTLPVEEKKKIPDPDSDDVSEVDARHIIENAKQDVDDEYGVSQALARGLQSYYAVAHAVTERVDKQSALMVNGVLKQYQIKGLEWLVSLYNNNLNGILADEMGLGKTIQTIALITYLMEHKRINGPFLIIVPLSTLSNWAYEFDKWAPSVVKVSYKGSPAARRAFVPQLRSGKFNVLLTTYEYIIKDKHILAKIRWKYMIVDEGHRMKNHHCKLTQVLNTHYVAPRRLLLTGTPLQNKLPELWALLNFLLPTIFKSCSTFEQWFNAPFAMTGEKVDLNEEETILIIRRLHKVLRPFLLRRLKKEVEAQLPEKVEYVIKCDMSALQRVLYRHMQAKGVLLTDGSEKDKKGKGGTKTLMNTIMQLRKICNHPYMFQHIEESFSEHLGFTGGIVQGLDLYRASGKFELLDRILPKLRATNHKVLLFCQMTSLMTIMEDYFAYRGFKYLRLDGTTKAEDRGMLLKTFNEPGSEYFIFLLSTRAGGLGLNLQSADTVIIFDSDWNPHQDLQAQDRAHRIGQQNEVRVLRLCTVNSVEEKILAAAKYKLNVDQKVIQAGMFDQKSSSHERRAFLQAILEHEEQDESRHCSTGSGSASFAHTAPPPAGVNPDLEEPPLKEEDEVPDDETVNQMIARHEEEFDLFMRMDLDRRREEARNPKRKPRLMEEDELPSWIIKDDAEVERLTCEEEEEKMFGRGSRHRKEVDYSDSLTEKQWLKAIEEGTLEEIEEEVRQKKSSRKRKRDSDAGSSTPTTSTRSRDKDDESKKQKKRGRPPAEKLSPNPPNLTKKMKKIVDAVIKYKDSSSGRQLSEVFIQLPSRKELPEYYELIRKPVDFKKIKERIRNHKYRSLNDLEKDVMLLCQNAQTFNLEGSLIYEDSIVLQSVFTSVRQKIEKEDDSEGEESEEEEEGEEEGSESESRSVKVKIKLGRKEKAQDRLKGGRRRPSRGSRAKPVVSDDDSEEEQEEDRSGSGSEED

Consider `Nc1nnc(-c2ccccc2O)cc1N1CCN(CCNC(=O)CCOCCOCCNc2ccc3c(c2)C(=O)N(C2CCC(=O)NC2=O)C3=O)CC1` (stereo not shown) [Compound 91, N-(2-[4-[3-amino-6-(2-hydroxyphenyl)pyridazin-4-yl]piperazin-1-yl]ethyl)-3-[2-(2-[[2-(2,6-dioxopiperidin-3-yl)-1,3-dioxo-2,3-dihydro-1H-isoindol-5-yl]amino]ethoxy)ethoxy]propanamide], for which, on HiBit-BRG1, the DC50 was above 1000 nM and the Dmax is below 50%. On HiBiT-BRM, the “BRM HiBit Degradation Maximum (%)” value is reported as “C (“C” indicates maximum degradation <50%)” and the DC50 was above 1000 nM.

Regarding `Nc1nnc(-c2ccccc2O)cc1OCCc1ccc(CNC(=O)CCCCOc2cccc3c2CN(C2CCC(=O)NC2=O)C3=O)cc1` (stereo not shown) [Compound 130, N-(4-(2-((3-amino-6-(2-hydroxyphenyl)pyridazin-4-yl)oxy)ethyl)benzyl)-5-((2-(2,6-dioxopiperidin-3-yl)-1-oxoisoindolin-4-yl)oxy)pentanamide], at HiBit-BRG1, the DC50 was above 1000 nM and the Dmax was below 50%. On HiBiT-BRM, the “BRM HiBit Degradation Maximum (%)” value was “C (“C” indicates maximum degradation <50%)” and the DC50 was above 1000 nM.

For `Cc1ncsc1-c1ccc(CNC(=O)[C@@H]2C[C@@H](O)CN2C(=O)[C@@H](NC(=O)CCCCN2CCN(CCC(=O)NCc3ccc(CCOc4cc(-c5ccccc5O)nnc4N)cc3)CC2)C(C)(C)C)cc1` [Compound 260, (2S,4R)-1-((S)-2-(5-(4-(3-((4-(2-((3-amino-6-(2-hydroxyphenyl)pyridazin-4-yl)oxy)ethyl)benzyl)amino)-3-oxopropyl)piperazin-1-yl)pentanamido)-3,3-dimethylbutanoyl)-4-hydroxy-N-(4-(4-methylthiazol-5-yl)benzyl)pyrrolidine-2-carboxamide], on HiBit-BRG1, the DC50 was above 1000 nM and the Dmax was below 50%. Moreover, at HiBiT-BRM, the “BRM HiBit Degradation Maximum (%)” value is “C (“C” indicates maximum degradation <50%)” and the DC50 is above 1000 nM.

In the case of `Nc1nnc(-c2ccccc2O)cc1OCCc1ccc(CNC(=O)CCOCCOCCNc2ccc3c(c2)C(=O)N(C2CCC(=O)NC2=O)C3=O)cc1` (stereo not shown) [Compound 70, N-[[4-(2-[[3-amino-6-(2-hydroxyphenyl)pyridazin-4-yl]oxy]ethyl)phenyl]methyl]-3-[2-(2-[[2-(2,6-dioxopiperidin-3-yl)-1,3-dioxoisoindol-5-yl]amino]ethoxy)ethoxy]propanamide], on HiBit-BRG1, the DC50 was above 1000 nM and the Dmax was below 50%. On HiBiT-BRM, the “BRM HiBit Degradation Maximum (%)” value was “C (“C” indicates maximum degradation <50%)” and the DC50 was above 1000 nM.

Take `Nc1nnc(-c2ccccc2O)cc1OCCc1ccc(CNC(=O)CCCCOc2cccc3c2C(=O)N(C2CCC(=O)NC2=O)C3=O)cc1` (stereo not shown) [Compound 67, N-[[4-(2-[[3-amino-6-(2-hydroxyphenyl)pyridazin-4-yl]oxy]ethyl)phenyl]methyl]-5-[[2-(2,6-dioxopiperidin-3-yl)-1,3-dioxoisoindol-4-yl]oxy]pentanamide]: on HiBit-BRG1, the DC50 is above 1000 nM and the Dmax is below 50%. Also, at HiBiT-BRM, the “BRM HiBit Degradation Maximum (%)” value is reported as “A (“A” indicates maximum degradation ≥75%)” and the DC50 was above 100 nM.

Consider `Cc1ncsc1-c1ccc([C@H](C)NC(=O)[C@@H]2C[C@@H](O)CN2C(=O)[C@@H](c2cc(OCCN3CCC(OC4CN(C(=O)c5ccc(CCOc6cc(-c7ccccc7O)nnc6N)cc5)C4)CC3)no2)C(C)C)cc1` [Compound 253, (2S,4R)-1-((R)-2-(3-(2-(4-((1-(4-(2-((3-amino-6-(2-hydroxyphenyl)pyridazin-4-yl)oxy)ethyl)benzoyl)azetidin-3-yl)oxy)piperidin-1-yl)ethoxy)isoxazol-5-yl)-3-methylbutanoyl)-4-hydroxy-N-((S)-1-(4-(4-methylthiazol-5-yl)phenyl)ethyl)pyrrolidine-2-carboxamide], for which, on HiBit-BRG1, the DC50 was above 1000 nM and the Dmax was below 50%. For the same compound, on HiBiT-BRM, the “BRM HiBit Degradation Maximum (%)” value is recorded as “A (“A” indicates maximum degradation ≥75%)” and the DC50 was below 10 nM.

`Nc1nnc(-c2ccccc2O)cc1OCCc1ccc(C(=O)NCCC(=O)NCc2ccc(S(=O)(=O)Nc3cccc4c(Cl)c[nH]c34)cc2)cc1` [Compound 17, 3-[[4-(2-[[3-amino-6-(2-hydroxyphenyl)pyridazin-4-yl]oxy]ethyl)phenyl]formamido]-N-([4-[(3-chloro-1H-indol-7-yl)sulfamoyl]phenyl]methyl)propanamide]: at HiBit-BRG1, the DC50 is above 1000 nM and the Dmax is below 50%. Besides, at HiBiT-BRM, the “BRM HiBit Degradation Maximum (%)” value is “C (“C” indicates maximum degradation <50%)” and the DC50 was above 1000 nM.

Consider `Cc1ncsc1-c1ccc([C@H](C)NC(=O)[C@@H]2C[C@@H](O)CN2C(=O)[C@@H](c2cc(OCCN3CCC(O)(C(=O)NCc4ccc(CCOc5cc(-c6ccccc6O)nnc5N)cc4)CC3)no2)C(C)C)cc1` [Compound 206, N-[[4-(2-[[3-amino-6-(2-hydroxyphenyl)pyridazin-4-yl]oxy]ethyl)phenyl]methyl]-4-hydroxy-1-[2-([5-[(2R)-1-[(2S,4R)-4-hydroxy-2-[[(1S)-1-[4-(4-methyl-1,3-thiazol-5-yl)phenyl]ethyl]carbamoyl]pyrrolidin-1-yl]-3-methyl-1-oxobutan-2-yl]-1,2-oxazol-3-yl]oxy)ethyl]piperidine-4-carboxamide], for which, at HiBit-BRG1, the DC50 is above 100 nM and the Dmax is above 75%. For the same compound, on HiBiT-BRM, the “BRM HiBit Degradation Maximum (%)” value is given as “A (“A” indicates maximum degradation ≥75%)” and the DC50 was above 10 nM.

Consider `Cc1ncsc1-c1ccc(CNC(=O)[C@@H]2C[C@@H](O)CN2C(=O)[C@@H](NC(=O)CCCCCCCCC(=O)NCc2ccc(CCNc3cc(-c4ccccc4O)nnc3N)cc2)C(C)(C)C)cc1` [Compound 140, N′-[[4-(2-[[3-amino-6-(2-hydroxyphenyl)pyridazin-4-yl]amino]ethyl)phenyl]methyl]-N-[(2S)-1-[(2S,4R)-4-hydroxy-2-([[4-(4-methyl-1,3-thiazol-5-yl)phenyl]methyl]carbamoyl)pyrrolidin-1-yl]-3,3-dimethyl-1-oxobutan-2-yl]decanediamide], for which, on HiBit-BRG1, the DC50 is above 1000 nM and the Dmax is below 50%. Further, on HiBiT-BRM, the “BRM HiBit Degradation Maximum (%)” value was “A (“A” indicates maximum degradation ≥75%)” and the DC50 is above 100 nM.

Consider `Cc1ncsc1-c1ccc(CNC(=O)[C@@H]2C[C@@H](O)CN2C(=O)[C@@H](NC(=O)CCCCCCCCCCCCCCC(=O)NCc2ccc(CCOc3cc(-c4ccccc4O)nnc3N)cc2)C(C)(C)C)cc1` [Compound 40, N1-(4-(2-((3-amino-6-(2-hydroxyphenyl)pyridazin-4-yl)oxy)ethyl)benzyl)-N16-((S)-1-((2S,4R)-4-hydroxy-2-((4-(4-methylthiazol-5-yl)benzyl)carbamoyl)pyrrolidin-1-yl)-3,3-dimethyl-1-oxobutan-2-yl)hexadecanediamide], for which, on HiBit-BRG1, the DC50 was above 1000 nM and the Dmax is below 50%. For the same compound, on HiBiT-BRM, the “BRM HiBit Degradation Maximum (%)” value is given as “A (“A” indicates maximum degradation ≥75%)” and the DC50 was above 100 nM.

In the case of `Cc1ncsc1-c1ccc([C@H](C)NC(=O)[C@@H]2C[C@@H](O)CN2C(=O)[C@@H](NC(=O)CCN2CCN(CCCCC(=O)NCc3ccc(CCOc4cc(-c5ccccc5O)nnc4N)cc3)CC2)C(C)(C)C)cc1` [Compound 265, (2S,4R)-1-((S)-2-(3-(4-(5-((4-(2-((3-amino-6-(2-hydroxyphenyl)pyridazin-4-yl)oxy)ethyl)benzyl)amino)-5-oxopentyl)piperazin-1-yl)propanamido)-3,3-dimethylbutanoyl)-4-hydroxy-N-((S)-1-(4-(4-methylthiazol-5-yl)phenyl)ethyl)pyrrolidine-2-carboxamide], on HiBit-BRG1, the DC50 is above 1000 nM and the Dmax was below 50%. Also, on HiBiT-BRM, the “BRM HiBit Degradation Maximum (%)” value is recorded as “B (“B” indicates maximum degradation ≥50%)” and the DC50 is above 1000 nM.

On to `Cc1ncsc1-c1ccc([C@H](C)NC(=O)[C@@H]2C[C@@H](O)CN2C(=O)[C@@H](NC(=O)CCCCCCCCCCC(=O)NCc2ccc(CCOc3cc(-c4ccccc4O)nnc3N)cc2)C(C)(C)C)cc1` [Compound 247, N1-(4-(2-((3-amino-6-(2-hydroxyphenyl)pyridazin-4-yl)oxy)ethyl)benzyl)-N12-((S)-1-((2S,4R)-4-hydroxy-2-(((S)-1-(4-(4-methylthiazol-5-yl)phenyl)ethyl)carbamoyl)pyrrolidin-1-yl)-3,3-dimethyl-1-oxobutan-2-yl)dodecanediamide], for which, at HiBit-BRG1, the DC50 was above 1000 nM and the Dmax was below 50%. Also, on HiBiT-BRM, the “BRM HiBit Degradation Maximum (%)” value is “A (“A” indicates maximum degradation ≥75%)” and the DC50 was above 10 nM.

Regarding `Cc1ncsc1-c1ccc([C@H](C)NC(=O)[C@@H]2C[C@@H](O)CN2C(=O)[C@@H](c2cc(OCCN3CC(C4CCN(C(=O)c5ccc(CCOc6cc(-c7ccccc7O)nnc6N)cc5)CC4)C3)no2)C(C)C)cc1` [Compound 211, (2S,4R)-1-[(2R)-2-[3-[2-(3-[1-[4-(2-[[3-amino-6-(2-hydroxyphenyl)pyridazin-4-yl]oxy]ethyl)benzoyl]piperidin-4-yl]azetidin-1-yl)ethoxy]-1,2-oxazol-5-yl]-3-methylbutanoyl]-4-hydroxy-N-[(1S)-1-[4-(4-methyl-1,3-thiazol-5-yl)phenyl]ethyl]pyrrolidine-2-carboxamide], at HiBit-BRG1, the DC50 was above 1000 nM and the Dmax was above 50%. In addition, at HiBiT-BRM, the “BRM HiBit Degradation Maximum (%)” value is reported as “A (“A” indicates maximum degradation ≥75%)” and the DC50 is above 10 nM.
